The source of these data is patent US4957864A, “Novel plasminogen activator and its preparation process” (Mitsui Toatsu Chemicals, Incorporated, priority 1982, dated 1990).

Like-named read-outs stand apart in the source and are kept apart here.

For data set [1], the target named is tissue activator obtained from human kidney (Homo sapiens, UniProt P00750). Put plainly: biochemical. The format is biochemical.
In data set [2] the target is T1, vascular plasminogen activator (Homo sapiens, UniProt P00750).
T1 construct: from tissue; host or cells: blood vessel wall
Put plainly: biochemical.

Data set [3] can be described thus: isoelectric point by polyacrylamide gel isoelectric-point electrophoresis. The format is physicochemical. As to conditions: 7.5% polyacrylamide gel, 8M urea, 1% ampholite. Here is the method:
The measurement of the isoelectric point of the purified tissue activator was carried out in a 7.5% polyacrylamide gel containing 8M urea and 1% ampholite in accordance with the method proposed by Mertz et al. [Biochem. Biophys. Res. Commun. 49, 84-91 (1972)]. The sample was solubilized in an 8M urea solution containing 2 mM EDTA and 1% ampholite. Its pH was determined by the method proposed by Finlayson et al. [Anal. Biochem. 40, 292-311 (1971)].

Data set [4] relates to fibrin. Put plainly: fibrinolytic activity by the fibrin-agar plate method, compared with urokinase (UKIU). The format is biochemical. How it is done: The fibrinolytic activity of the tissue activator was compared with that of urokinase and was expressed in terms of the international unit (UKIU). […] The activity of the tissue activator was determined by measuring the lytic areas of diluted samples within the range of 120-200 mm^2. […] The enzymatic activity of the tissue activator was standardized by the enzymatic activity of urokinase and the percentage recovery of the tissue activator and its specific activity relative to UKIU/ml were measured after each of several purification stages.
The non-specific fibrin-resolving activity was measured on a fibrin-agar plate free of plasminogen.

Data set [5] is described as follows: hydrolytic activity against fluorescent 4-methylcoumaryl-7-amide substrates. The format is biochemical. The settings on record: 3093-V, 3095-V, 3096-V, 3097-V. Here is the method:
The thus-purified tissue activator was tested with various fluorescent substrates by adding 50 μl of the tissue activator sample in a 0.02M Tris-HCl solution of pH 8.0 containing 0.1M NaCl and 0.02% Tween 80 and 2.0 ml of the substrate in the same buffer solution. The following materials were used as the fluorescent substrates:
Boc-L-valyl-L-prolyl-L-arginine-4-methyl-coumaryl-7-amide;
Carbobenzoxy-L-phenylalanyl-L-arginine 4-methylcoumaryl-7-amide;
L-prolyl-L-phenylalanyl-L-arginine-4-methylcoumaryl-7-amide; and
Glutaryl-glycyl-L-arginine-4-methylcoumaryl-7-amide.
The initial release of 7-amino-4-methylcoumarine (AMC) was measured by a fluorometer at 37° C. in a Shimadzu Fluorospectrophotometer Model RF-520. The fluorometer had been set in such a manner that a radiation of a fluorescent light of 380 nm permitted to emit an excited fluorescent light of 460 nm, and also so adjusted that a 0.1% DMSO solution containing […] gave a relative fluorescent unit of 1.0. The hydrolytic activity of the purified tissue activator was measured using a chromogenic substrate, by adding 200 μl of a tissue activator sample, 200 μl of a 0.1M Tris-HCl solution of pH 8.0 containing 0.1M NaCl and 0.02% Tween 80, and 200 μl of a 3 mM S-2251 solution or a 1 mM S-2288 solution. The initial release of p-nitroaniline was measured by a spectrophotometer at 405 nm and 37° C. in a glass cell. […]

A short description of data set [6]: hydrolytic activity against chromogenic substrate S-2251. The class given is biochemical. As to conditions: activator 100 UKIU/ml; 37° C., 405 nm. Here is the method:
(§1) The initial release of 7-amino-4-methylcoumarine (AMC) was measured by a fluorometer at 37° C. in a Shimadzu Fluorospectrophotometer Model RF-520. The fluorometer had been set in such a manner that a radiation of a fluorescent light of 380 nm permitted to emit an excited fluorescent light of 460 nm, and also so adjusted that a 0.1% DMSO solution containing […] gave a relative fluorescent unit of 1.0. The hydrolytic activity of the purified tissue activator was measured using a chromogenic substrate, by adding 200 μl of a tissue activator sample, 200 μl of a 0.1M Tris-HCl solution of pH 8.0 containing 0.1M NaCl and 0.02% Tween 80, and 200 μl of a 3 mM S-2251 solution or a 1 mM S-2288 solution. The initial release of p-nitroaniline was measured by a spectrophotometer at 405 nm and 37° C. in a glass cell. The initial velocity of the hydrolytic activity was expressed in terms of ΔmA/min for the chromogenic substrate and Δ%/min for the fluorescent substrate.
For plasmin, H-D-valyl-L-leucyl-L-lysine-p-nitroanilide dihydrochloride (S-2251);

The test system of data set [7] is insolubilized fibrin monomer. In words: adsorption onto fibrin-Sepharose column. The class given is binding, human.
The subject of data set [8] is anti-urokinase IgG. In words: affinity chromatography on anti-urokinase IgG-Sepharose column. The class given is binding, goat. The source says:
The employed urokinase sample was identical to that analyzed in accordance with the SDS-polyacrylamide gel electrophoresis.
The gel was washed with a 0.02M Tris-HCl solution of pH 7.4 containing 1.0M NaCl at least 20 times in volume that of the gel.

Data set [9] in a line: storage and pH stability of activity in buffer solution. The class given is physicochemical. Here is the method:
The same result was obtained even when 1M NH4 SCN or 0.02% Tween 80 and 0.1M NaCl were incorporated in the buffer solution.
The stability of the plasminogen activator of the present invention was investigated in the pH
hours in a buffer solution range of 1-10 at 4° C. for 24 containing 0.5M NaCl and 0.02% Tween 80.

Data set [10] can be described thus: hydrolytic activity against chromogenic substrate S-2288. The class given is biochemical. As to conditions: activator 100 UKIU/ml; 37° C., 405 nm. Here is the method: as §1
For tissue plasminogen activator, H-D-isoleucyl-L-prolyl-L-arginine-p-nitroanilide dihydrochloride (S-2288).

Data set [11] has as its system antivascular plasminogen activator serum. In words: double immunodiffusion with antivascular plasminogen activator and anti-urokinase serums. The format is binding. The source says: Using the antivascular plasminogen activator and anti-urokinase serums, the antigenicities of the both activators were studied in accordance with the double immunodiffusion method. As a result, both urokinase and the vascular plasminogen activator developed individually a single precipitation curve between themselves and their corresponding anti-urokinase or antivascular plasminogen activator serum.
In order to study whether the activators obtained respectively from kidney tissue and the wall of a blood vessel have the same antigenicity as urokinase, the elution profile of proteins and active ingredient of the activator obtained by the antiurokinase IgG-Sepharose affinity chromatographic treatment of the purified activator of Example 1-(6) and the activator of Example 1-(3) was compared with the elution profile of urokinase. […] The protein contained in the effluents was serum albumine incorporated in the commercially available urokinase used in this experiment. […] When the partially-purified sample obtained in Example 1-(3) was poured in the same column, about 15% of the poured activity was adsorbed on the column and eluted with the glycine solution of pH 2.4. […]

The test system of data set [12] is fibrin. As to conditions: M.W. 33,000 urokinase sample; cited from earlier work.
Where [13] appears, read: Aprotinin 50 KIU/ml, iodoacetamide 10 mM, soybean trypsin 50 mg/ml, L-arginine 100 mM, diisopropyl fluorophosphate 5 mM, 37° C., 1 hour.
Where [14] appears, read: diisopropyl fluorophosphate 5 mM, L-arginine 0.1M, Trasylol 50 KIU/ml, iodoacetamide 10 mM, soybean trypsin inhibitor 50 μg/ml.

tissue activator obtained from human kidney, sequence (P00750 36-562): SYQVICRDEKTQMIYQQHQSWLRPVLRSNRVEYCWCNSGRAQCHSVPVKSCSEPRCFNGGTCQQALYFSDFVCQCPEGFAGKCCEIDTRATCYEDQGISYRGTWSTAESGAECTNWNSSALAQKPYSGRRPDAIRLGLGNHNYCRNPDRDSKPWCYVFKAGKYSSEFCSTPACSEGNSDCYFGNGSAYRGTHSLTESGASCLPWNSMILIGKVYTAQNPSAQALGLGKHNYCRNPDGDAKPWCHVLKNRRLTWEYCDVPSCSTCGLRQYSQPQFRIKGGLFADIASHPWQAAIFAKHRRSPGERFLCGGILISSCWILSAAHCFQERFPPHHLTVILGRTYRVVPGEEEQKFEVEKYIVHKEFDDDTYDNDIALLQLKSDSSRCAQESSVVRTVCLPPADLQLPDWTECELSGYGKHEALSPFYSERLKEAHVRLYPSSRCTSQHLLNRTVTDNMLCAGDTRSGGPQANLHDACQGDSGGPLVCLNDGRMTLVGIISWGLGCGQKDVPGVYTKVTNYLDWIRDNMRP
T1 sequence (P00750 36-562): as above

A word on the inhibition: it is the share of the control response that was lost under treatment. Turning to `N=C(N)NCCC[C@H](N)C(=O)O` [L-arginine], in data set [1] (read-out: inhibition of amide-decomposing activity against S-2288), the inhibition at 100000 µM was not above 26%. Moreover, the inhibition at 50 µg/mL in data set [2] (read-out: activity inhibition of the vascular plasminogen activator) turned out to be 20%.

Consider `NC(=O)CI` [iodoacetamide], for which the “inhibition of amide-decomposing activity against S-2288” value (“inhibition … against S-2288” for short) in [1] (setting [13]) is “not inhibited”. Also, in data set [2] (setting [14]), the “activity inhibition of the vascular plasminogen activator” value (“activity inhibition” below) is on record as “no changes”.

For the molecule Aprotinin [Trasylol], the “inhibition … against S-2288” value in [1] (setting [13]) is reported as “not inhibited”. Also, the “activity inhibition” value in [2] (setting [14]) is recorded as “no changes”.

In the case of “kidney-originated activator: purified tissue plasminogen activator obtained from human kidney in Example 1-(6); molecular weight about 72,000”, in data set [3], the “isoelectric point (pI) of the main band” value is recorded as 8.2. Further, the Specific activity in data set [4] (Table 2, purification stages of tissue plasminogen activator obtained from kidneys) is reported as 25,700 UKIU/mg. For the same molecule, the “specific activity relative to human kidney dried with acetone” value in data set [4] (highly purified form) is reported as 30,000-45,000 times. For the same molecule, the “hydrolytic activity to substrates other than S-2251 and S-2288” value in [5] is given as “did not show hydrolytic activity”. Besides, the “hydrolytic activity against S-2251” value in [6] was 88 ΔmA/min. In [7], the “adsorption onto fibrin-Sepharose column” value is recorded as “adsorbed completely” and the “total poured activity recovered by elution with 2M NH4 SCN from fibrin-Sepharose” value is “at least 90%”. In data set [8], the “adsorption / affinity for anti-urokinase IgG-Sepharose” value (shortened to “adsorption / affinity”) was “passed through the column without adsorption”. Besides, the “pH range in which the activator was stable” value in [9] (4° C., 24 hours, buffer containing 0.5M NaCl and 0.02% Tween 80, pH 1-10 tested) is 2-10. In addition, in data set [9] (4° C., buffer solution of pH 7.4, 2 weeks), the activity after storage result is listed as “did not give any activity reduction”. For the same molecule, the reduction of activity in data set [9] (pH 1.0, 4° C., 24 hours, 0.5M NaCl and 0.02% Tween 80) is listed as 70%. Also, the “hydrolytic activity against S-2288” value in data set [10] is 70 ΔmA/min. Further, in [11], the “crosslinking of precipitation curves / with antiserum in immunodiffusion” value was “ready crosslinking reaction”.

On to urokinase [reference compound], for which, in data set [4] (10 μl of a 1 IU/ml solution), the “lytic area on fibrin-agar plate” value was 156 mm^2. The “specific activity of high-purity human urokinase used as immunogen” value in [12] was 202,400 IU/mg. Besides, in data set [7], the “adsorption onto fibrin-Sepharose column” value is “passed through the column”. For the same molecule, the “adsorption / affinity” value in data set [8] is on record as “adsorbed strongly”.

For the molecule “vascular plasminogen activator: purified plasminogen activator from human blood vessel walls; single-chain glycoprotein, molecular weight about 70,000”, the “isoelectric point (pI) of the main band” value in [3] was 7.8. Further, in data set [4] (Table 1, purification stages of tissue plasminogen activator from blood vessels), the Specific activity is 57,400 UKIU/mg. Further, in [4] (blood vessel derived, after final purification), the “specific activity of the final plasminogen activator” value is 45,000-80,000 IU/mg proteins. Besides, the “adsorption / affinity” value in data set [8] is reported as “did not show any affinity”. Also, the “crosslinking of precipitation curves / with antiserum in immunodiffusion” value in data set [11] was “no crosslinking was observed”.

B1: soybean trypsin inhibitor: soybean trypsin inhibitor used as protease inhibitor (protein, UniProt P01070 25-205, looked up)
Trypsin inhibitor A: DFVLDNEGNPLENGGTYYILSDITAFGGIRAAPTGNERCPLTVVQSRNELDKGIGTIISSPYRIRFIAEGHPLSLKFDSFAVIMLCVGIPTEWSVVEDLPEGPAVKIGENKDAMDGWFRLERVSDDEFNNYKLVFCPQQAEDDKCGDIGISIDHDDGTRRLVVSKNKPLVVQFQKLDKESL
B1: in [1], the “inhibition … against S-2288” value was “not inhibited”. Also, the “activity inhibition” value in data set [2] was “no changes”.
